Experimental data reported in patent US20230093073A1, “METHODS AND COMPOSITIONS FOR COMMUNITY-BASED SCREENING OF POLYMICROBIAL INFECTIONS” (REGENTS OF THE UNIVERSITY OF MINNESOTA, priority 2020, published 2023).

Experiments:
[1] = system: P. aeruginosa and anaerobic bacteria capable of degrading mucins; conditions: cited from earlier work
[2] = system: anaerobic mucin-degrading bacteria; assay: Anaerobic antibiotic susceptibility testing (MIC) of enrichment cultures from CF sputum in minimal mucin medium; format: cell-based; conditions: MMM, 37° C., 72 h
Procedure: (§1) To further test this idea under clinically relevant conditions, sputum was collected from adult CF patients and isolated P. aeruginosa from each sample (FIG. 1B). Using a panel of widely used CF antibiotics (tobramycin, aztreonam, levofloxacin, piperacillin-tazobactam) and others lacking conventional activity against P. aeruginosa (trimethoprim-sulfamethoxazole, metronidazole), MICs for each isolate were determined under nutrient-rich conditions (akin to standard AST procedures). Concurrently, enrichment culturing was performed to isolate anaerobic mucin-degrading bacteria from each sample (10) and antibiotic MICs were similarly determined. Finally, small aliquots of remaining sputa were diluted in buffer and split between culture tubes containing mucin as the sole carbon source, 1% agarose, and one of the antibiotics listed above. Using these cultures in which P. aeruginosa and anaerobic mucin-degraders were co-dependent on mucin utilization, how co-operative growth affected antibiotic sensitivity relative to independent culture was interrogated.
Anaerobic enrichment. […]
Antibiotic susceptibility testing. […] Plates were resuspended by pipetting and read spectrophotometrically at OD600 using a BioTek Synergy plate reader. MICs were determined based on the antibiotic concentration required to achieve a 90% reduction in culture density relative to antibiotic-free controls.

[3] = system: P. aeruginosa; assay: Antibiotic susceptibility testing (MIC) of P. aeruginosa isolates from CF sputum in LB; format: cell-based, Pseudomonas aeruginosa; conditions: isolates from adult CF sputum, nutrient-rich LB, aerobic, 37° C., 24 h
Procedure: as §1
Pseudomonas aeruginosa isolation. 100 μL of sputum was streaked onto Pseudomonas isolation agar and incubated at 37° C. for 72 hours. A single isolate from each sample was screened by PCR to confirm identity and stored in 30% glycerol at −80° C.
Antibiotic susceptibility testing. For anaerobic AST, 5 μL of enrichment culture was added to each well of microtiter plate containing MMM supplemented with gradients of seven antibiotics (aztreonam 0-500 μg/mL; doxycycline, 0-25 μg/mL; levofloxacin, 0-25 μg/mL; metronidazole, 0-25 μg/mL; piperacillin/tazobactam, 0-25 μg/mL; tobramycin, 0-500 μg/mL; trimethoprim/sulfamethoxazole, 0-25 μg/mL). Plates were wrapped in parafilm and incubated anaerobically at 37° C. for 72 h. For P. aeruginosa, isolates were grown in lysogeny broth (LB) to an OD600 of 0.5. 5 μL was then added to a similar plate containing LB as the base medium and incubated aerobically at 37° C. for 24 h. Plates were resuspended by pipetting and read spectrophotometrically at OD600 using a BioTek Synergy plate reader. MICs were determined based on the antibiotic concentration required to achieve a 90% reduction in culture density relative to antibiotic-free controls.

[4] = system: sputum bacterial communities; assay: Mucin co-culture of CF sputum bacterial communities, community growth by 16S rRNA gene qPCR; format: cell-based; conditions: for whether presence of at least one antibiotic-susceptible population predicts community failure in co-culture: sputum co-culture vs individual MICs of P. aeruginosa and anaerobes; for effect on co-operative community growth (16S rRNA gene copies relative to untreated control, FIG. 2C): sputum co-culture, mucin sole carbon source, 1% agarose, 72 h, one fixed concentration per antibiotic
Procedure: as §1
It was assessed whether co-operative community growth (see FIG. 1A) would affect antibiotic susceptibility. Specifically, we hypothesized that the sensitivity of the overall sputum bacterial community would be set by the least tolerant among P. aeruginosa and anaerobic subpopulations. To test this hypothesis, total 16S rRNA gene copy number was used to quantify community growth in response to each antibiotic relative to untreated controls (FIG. 2C).
Co-culture. Under anaerobic conditions, 200 μL of homogenized sputum was placed into one of eight tubes to which a pre-determined concentration of each antibiotic was added (aztreonam, 100 μg/mL; doxycycline, 6.5 μg/mL; levofloxacin, 6.5 μg/mL; metronidazole, 3.5 μg/mL; piperacillin/tazobactam, 6.5 μg/mL; tobramycin, 500 μg/mL; trimethoprim/sulfamethoxazole, 3.5 μg/mL). […] 200 μL of molten 2% low melting point agarose in PBS was added to each tube and homogenized by pipetting. Each mixture was then added to 0.5 mL Pyrex culture tubes forming a gel upon cooling. Upon removal from the anaerobic chamber, tubes were incubated at 37° C. for 72 h and frozen at −80° C.
DNA extraction. Agar plugs were removed from the culture tubes, transferred to a Matrix E Lysing Tubes (MP Biomedicals) and two volumes of lysis buffer were added. Tubes were vortexed on a bead beater for 2×30 s, followed by centrifugation at 9,500×g for 1 min. Supernatant was transferred to a new tube, incubated at 75° C. for 10 min and returned to room temperature. Lysozyme and RNAse A were then added to final concentrations of 0.2 mg/mL and 50 μg/mL, respectively, and incubated for 1 h at 37° C. […], of 10% SDS and proteinase K (2 mg/mL) were added and incubated overnight at 55° C.
DNA was extracted by adding one volume of phenol:chloroform:iosoamyl alcohol (25:24:1) and vortexing to emulsify. Samples were centrifuged at 21,000×g for 20 min and the upper aqueous layer transferred to a new tube. One volume of chloroform:IAA was then added followed by centrifugation at 21,000×g for 15 min. The upper layer was transferred to a new tube. 3M sodium acetate (pH 5.2) was added and mixed gently, followed by the addition of 1 volume of isopropanol and 3 μL GlycoBlue. Samples were centrifuged for 20 min at 21,000×g and supernatant removed. Pellets were washed using 80% ethanol, air dried for ˜30 min and resuspended in 10 mM Tris (pH 8) prior to storage at −80° C.
qPCR. Community growth was estimated by quantifying 16S rRNA gene copies from co-culture DNA.

| Molecule | efficacy against anaerobic enrichments (MICs, FIG. 2B) [2] | efficacy against P. aeruginosa isolates (MICs, FIG. 2A) [3] | whether presence of at least one antibiotic-susceptible population predicts community failure in co-culture [4] | effect on co-operative community growth (16S rRNA gene copies relative to untreated control, FIG. 2C) [4] | also measured |
| --- | --- | --- | --- | --- | --- |
| CC1(C)S[C@@H]2[C@H](NC(=O)[C@H](N)c3ccccc3)C(=O)N2[C@H]1C(=O)O [ampicillin] |  |  |  |  | P. aeruginosa growth in co-culture with mucin-degrading anaerobes ([1]; co-culture on mucins as sole carbon source, inhibition of anaerobic subpopulation): constrained P. aeruginosa growth; resistance of P. aeruginosa determined by standard AST ([1]; standard AST, monoculture): high intrinsic resistance |
| C[C@H]1[C@H](NC(=O)/C(=N\OC(C)(C)C(=O)O)c2csc(N)n2)C(=O)N1S(=O)(=O)O [aztreonam] | variable efficacy | some isolates were resistant | largely predictive of community failure |  | growth of two aztreonam-resistant P. aeruginosa isolates in co-culture ([4]; co-culture with aztreonam-susceptible anaerobic mutualists, aztreonam 100 μg/mL): restricted in co-culture |
| Cc1ncc([N+](=O)[O-])n1CCO [metronidazole] |  | ineffective |  | striking effect on co-operative cultures | sputum community growth, patient 5 ([4]; patient 5, both subpopulations independently resistant, metronidazole 3.5 μg/mL): robust |
| NC[C@H]1O[C@H](O[C@H]2[C@H](O)[C@@H](O[C@H]3O[C@H](CO)[C@@H](O)[C@H](N)[C@H]3O)[C@H](N)C[C@@H]2N)[C@H](N)C[C@@H]1O [tobramycin] | all anaerobic enrichments demonstrated resistance | broadly effective |  | striking effect on co-operative cultures |  |
| piperacillin-tazobactam |  | some isolates were resistant | largely predictive of community failure |  |  |
| trimethoprim-sulfamethoxazole |  | some isolates were resistant | largely predictive of community failure | variable effects | community growth, patients 3 and 4 ([4]; patients 3 and 4, antibiotic predicted ineffective from individual MICs, T/S 3.5 μg/mL): surprisingly inhibited |
